Where “and” joins values, the source holds several entries; their conditions need not be identical. Equal entries are not always repeated.
Tests used:
[1] = system: non small cell lung cancer (NSCLC) xenograft models; format: in vivo; conditions: for percentage of tumors with a T/C ratio<20%: share of models; for percentage of responses overall (T/C): share of models responding
Procedure: FIG. 1: Preclinical lung cancer study design: 22 non small cell lung cancer (NSCLC) xenograft models were derived from patients primary tumors directly after surgery; at low murine passages response to Sagopilone and standard chemotherapy was assessed and samples grouped into responders and non-responders. RNA from untreated control tumors was subjected to Affymetrix gene expression analysis for discrimination of gene expression levels at baseline with tumor response.
Lung cancer xenograft models were established by subcutaneously transplanting fresh tumor material from NSCLC patients into nude mice. Tumor types included pleomorphic carcinoma (7187, 7336), squamous cell carcinoma (7126, 7177, 7298, 7343, 7462, 7433, 7530), dedifferentiated carcinoma (7668), adenocarcinoma (7064, 7198, 7406, 7387, 7466, 7612) and small cell lung cancer ([…]).
Antitumor activity was determined using either the reduction in tumor area in treated versus control mice (T/C ratio), or the mean change in absolute tumor volume compared with volume at baseline (day of first treatment).
1° lung cancer biopsies obtained from patients with established cancer were transplanted into nude mice. Tumor growth curves for the treatment with Etoposide, Carboplatin, Gemcitabine, Taxol, Navelbine, Cetuximab, Erlotinib und Sagopilone were generated. Mutation status of p53 was analyzed in the models according to methods known in the art. Fourteen Sagopilone responders and eight Sagopilone non-responders were characterized in long-term experiments. A PBS control group was treated with PBS or Sagopilone for 24 hrs before sacrifice. RNA for Sagopilone responder and non-responder models were isolated according to methods known in the art and were hybridized onto arrays according to the manufacturer's instructions.

A549 NSCLC cells = assay: A549 NSCLC xenograft in nude mice: Sagopilone combined with acetazolamide; format: in vivo; conditions: acetazolamide 40 mg/day p.o. with Sagopilone 6 or 8 mg/kg, FIG. 11
Procedure: FIG. 11: A549 NSCLC cells were xenotransplanted into nude mice. Mice were treated starting on day 7 after tumor transplantation as indicated: Sagopilone 6 mg/kg or 8 mg/kg were given on days 17, 32 and 45 after transplantation as indicated by arrows, acetazolamide 40 mg/day p.o. was given either daily or twice a day for five days starting on the day of Sagopilone administration (2 h before and 2 h after application of Sagopilone).

[2] = 22 NSCLC xenograft models, FIG. 4, count

Nc1ccn([C@@H]2O[C@H](CO)[C@@H](O)C2(F)F)c(=O)n1 [gemcitabine]
response (percentage of models), criteria not given ([1]; lung cancer xenografts, b271, FIGS. 2a and 2b): 61.5% | percentage of tumors with a T/C ratio<20% ([1]; lung cancer xenografts): 47.0% | percentage of responses overall (T/C) ([1]; lung cancer xenografts): 80.0% | models in which at least 2 animals per group (n=6) could not be evaluated due to toxicity ([1]; mouse, in vivo): seven | toxicity in xenograft-bearing mice ([1]; mouse, in vivo): marked toxicity | models in which toxicity prevented evaluation of any mice ([1]; nude, mouse, in vivo): 2

CC(=O)Nc1nnc(S(N)(=O)=O)s1 [acetazolamide]
effect of combination with an epothilone on tumor response (A549 NSCLC cells): sensitization

C=CC[C@H]1C(=O)C(C)(C)[C@@H](O)CC(=O)O[C@H](c2ccc3sc(C)nc3c2)C[C@@H]2O[C@]2(C)CCC[C@H](C)[C@@H]1O [Sagopilone, (1S,3S,7S,10R,11S,12S,16R)-7,11-Dihydroxy-10-allyl-8,8,12,16-tetramethyl-3-(2-methyl-benzothiazol-5-yl)-4,17-dioxa-bicyclo[14.1.0]heptadecane-5,9-dione]
samples with stable disease [1, 2]: three | samples with tumor regression [1, 2]: Eleven | models being non-responders (tumor progression), clinical criteria ([1]; 22 NSCLC xenograft models, count of models): eight | models showing response / tumor growth inhibition by T/C value ([1]; 22 lung cancer xenografts, tumor volume treated vs control, count of models): 22 and 22 of 22 | number of NSCLC with a T/C ratio<20% ([1]; lung cancer xenografts, count of models): 12 | percentage of tumors with a T/C ratio<20% ([1]; lung cancer xenografts): 76.5% | response of xenograft model Lu7198 ([1]; model Lu7198, FIG. 3B): tumor progression | response of xenograft model Lu7298 ([1]; model Lu7298, FIG. 3A): tumor shrinkage | activity and tolerability compared with commonly used cytotoxic agents in NSCLC ([1]; vs carboplatin, paclitaxel, gemcitabine, etoposide, vinorelbine, in words): superior activity and tolerability

N.N.O=C([O-])C1(C(=O)[O-])CCC1.[Pt+2] [carboplatin]
percentage of tumors with a T/C ratio<20% ([1]; lung cancer xenografts): 25.0% | percentage of responses overall (T/C) ([1]; lung cancer xenografts): 68.8%

CC(=O)O[C@H]1C(=O)[C@@]2(C)[C@H]([C@H](OC(=O)c3ccccc3)[C@]3(O)C[C@H](OC(=O)[C@H](O)[C@@H](NC(=O)c4ccccc4)c4ccccc4)C(C)=C1C3(C)C)[C@]1(OC(C)=O)CO[C@@H]1C[C@@H]2O [Paclitaxel]
percentage of tumors with a T/C ratio<20% ([1]; lung cancer xenografts): 56.2% | percentage of responses overall (T/C) ([1]; lung cancer xenografts): 81.2%

— patent US20090076098A1, “METHODS, KITS, AND COMPOUNDS FOR DETERMINING RESPONSIVENESS TO TREATMENT OF A PATHOLOGICAL DISORDER BY EPOTHILONES” (priority 2007, published 2009)
